Measured values from the supplement of paper PMC10307832.

What was measured:
Assay in all cases: relative viability (nuclei count vs DMSO), 5 days (fraction); higher = more cells survive
GSK126 + Linsitinib = compound: CC[C@H](C)N1C=C(C2=C(C=C(C=C21)C3=CN=C(C=C3)N4CCNCC4)C(=O)NCC5=C(C=C(NC5=O)C)C)C [GSK126] + C[C@]1(O)C[C@@H](c2nc(-c3ccc4ccc(-c5ccccc5)nc4c3)c3c(N)nccn32)C1 [Linsitinib] (partner 1 µM)
In short: (§1)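 Lung cancer cell lines were pin-tool dosed in 1536-well plates on the day after seeding, with either a lone drug or a fixed anchor-drug dose plus five library-drug doses (not always all listed) in √10 steps. Nuclei were counted on 4× images after 5 days. Relative viability is the ratio of treated-well to vehicle-well nuclei counts, with each value a median of duplicate plates.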

MLN4924 + OSI-027 = compound: NS(=O)(=O)OC[C@@H]1C[C@@H](n2ccc3c(N[C@H]4CCc5ccccc54)ncnc32)C[C@@H]1O [MLN4924] + COc1cccc2cc(-c3nc([C@H]4CC[C@H](C(=O)O)CC4)n4ncnc(N)c34)[nH]c12 [OSI-027] (partner 0.5 µM)
In short: as §1

MLN4924 + AZD7762 = compound: NS(=O)(=O)OC[C@@H]1C[C@@H](n2ccc3c(N[C@H]4CCc5ccccc54)ncnc32)C[C@@H]1O [MLN4924] + NC(=O)Nc1cc(-c2cccc(F)c2)sc1C(=O)N[C@H]1CCCNC1 [AZD7762] (partner 0.2 µM)
In short: as §1

MLN4924 + Pemetrexed = compound: NS(=O)(=O)OC[C@@H]1C[C@@H](n2ccc3c(N[C@H]4CCc5ccccc54)ncnc32)C[C@@H]1O [MLN4924] + Nc1nc2[nH]cc(CCc3ccc(C(=O)N[C@@H](CCC(=O)O)C(=O)O)cc3)c2c(=O)[nH]1 [Pemetrexed] (partner 0.2 µM)
In short: as §1

| Cell Line | relative viability (GSK126 + Linsitinib; first compound 0.08 µM) | relative viability (GSK126 + Linsitinib; first compound 0.253 µM) | relative viability (GSK126 + Linsitinib; first compound 0.8 µM) | relative viability (GSK126 + Linsitinib; first compound 2.53 µM) | relative viability (GSK126 + Linsitinib; first compound 8 µM) | relative viability (MLN4924 + OSI-027; first compound 0.04 µM) | relative viability (MLN4924 + OSI-027; first compound 0.1265 µM) | relative viability (MLN4924 + OSI-027; first compound 0.4 µM) | relative viability (MLN4924 + OSI-027; first compound 1.265 µM) | relative viability (MLN4924 + OSI-027; first compound 4 µM) | relative viability (MLN4924 + AZD7762; first compound 0.04 µM) | relative viability (MLN4924 + AZD7762; first compound 0.1265 µM) | relative viability (MLN4924 + AZD7762; first compound 0.4 µM) | relative viability (MLN4924 + AZD7762; first compound 1.265 µM) | relative viability (MLN4924 + AZD7762; first compound 4 µM) | relative viability (MLN4924 + Pemetrexed; first compound 0.04 µM) | relative viability (MLN4924 + Pemetrexed; first compound 0.1265 µM) | relative viability (MLN4924 + Pemetrexed; first compound 0.4 µM) | relative viability (MLN4924 + Pemetrexed; first compound 1.265 µM) | relative viability (MLN4924 + Pemetrexed; first compound 4 µM) |
| --- | --- | --- | --- | --- | --- | --- | --- | --- | --- | --- | --- | --- | --- | --- | --- | --- | --- | --- | --- | --- |
| NCI-H647 | 1.47 | 1.28 | 1.17 | 1.07 | 1.08 | 0.598 | 0.472 | 0.475 | 0.0477 | 0.0384 | 0.412 | 0.334 | 0.0972 | 0.0222 | 0.0279 | 0.156 | 0.119 | 0.0763 | 0.0395 | 0.0465 |
| NCI-H1734 | 0.871 | 0.896 | 0.814 | 0.846 | 0.946 | 0.498 | 0.832 | 0.304 | 0.124 | 0.142 | 0.863 | 0.641 | 0.204 | 0.104 | 0.111 | 0.497 | 0.514 | 0.252 | 0.128 | 0.125 |
| LOU-NH91 | 0.975 | 0.884 | 0.924 | 0.977 | 0.973 | 0.754 | 0.857 | 0.609 | 0.411 | 0.385 | 0.785 | 0.95 | 0.823 | 0.645 | 0.459 | 0.367 | 0.366 | 0.393 | 0.385 | 0.343 |
| NCI-H1793 | 1.04 | 0.777 | 0.748 | 0.982 | 0.82 | 0.293 | 0.26 | 0.303 | 0.243 | 0.261 | 0.714 | 0.463 | 0.51 | 0.406 | 0.216 | 0.892 | 0.698 | 0.914 | 0.433 | 0.303 |
| NCI-H441 | 0.684 | 0.583 | 0.599 | 0.578 | 0.651 | 0.596 | 0.613 | 0.258 | 0.139 | 0.193 | 1.23 | 1.12 | 0.722 | 0.452 | 0.173 | 0.248 | 0.222 | 0.234 | 0.139 | 0.187 |
| RERF-LC-KJ | 0.908 | 0.909 | 0.852 | 0.884 | 0.901 | 0.576 | 0.52 | 0.217 | 0.175 | 0.224 | 0.941 | 0.738 | 0.256 | 0.182 | 0.253 | 0.523 | 0.426 | 0.18 | 0.208 | 0.224 |
| H3255 | 0.99 | 0.96 | 0.945 | 0.893 | 0.874 | 0.578 | 0.472 | 0.373 | 0.256 | 0.291 | 0.784 | 0.797 | 0.457 | 0.267 | 0.33 | 0.603 | 0.577 | 0.396 | 0.263 | 0.308 |
| A-427 | 1.19 | 1.19 | 1.09 | 1.17 | 1.11 | 0.356 | 0.239 | 0.214 | 0.173 | 0.171 | 0.502 | 0.324 | 0.366 | 0.172 | 0.217 | 0.611 | 0.466 | 0.333 | 0.247 | 0.273 |
